Here are results for nine compounds from patent US10602680B2, “Method of internal seed disinfection by combining seed priming with vacuum infiltration” (priority 2014, dated 2020).

Series [1] deals with Acidovorax avenae subsp. citrulli. Particulars: on Acidovorax avenae subsp. citrulli; reported by Layne Wade, 2006; cited from earlier work.
For series [2] the test system is unchanged. The series can be described thus: 10 minute soak of externally infected diploid watermelon seeds in antibiotic solutions. The format is in vivo. On the procedure:
The effectiveness of using an antibiotic solution combined with matrix priming for disinfecting triploid watermelon seeds internally infected with Acidovorax avenae subsp. citrulli has been tested. In order to screen for effective antibiotics, diploid watermelon seeds were obtained which were externally infected with Acidovorax avenae subsp. citrulli. […] Infected seeds were soaked for 10 minutes in antibiotic solutions of 100 ppm, 250 ppm, and 500 ppm of the above antibiotics. Dosage was chosen based on information reported by Layne Wade (21st Annual Tomato Disease Workshop, Asheville, N.C., November 2006) which stated that the MIC (minimum inhibitory concentration) of Kasugamycin on Acidovorax avenae subsp. citrulli is greater than 100 ppm.

The test system of series [3] is triploid watermelon seeds. The series can be described thus: Phytotoxicity screening by vacuum infiltration followed by matrix priming. On the procedure:
Step 110 involves choosing which species of seed will be sought to be disinfected. […] Thus, in step 130, a phytotoxicty screening is carried out on the chosen seeds using the chosen treatment. […] For example, the inventors screened the antibiotic Oxytetracycline using the method of adding chemicals to the water used in matrix priming (Eastin, J. A., 2000, U.S. Pat. No. 6,076,301) and the method of the present invention. Water containing 500 ppm of Oxytetracycline was used to prime triploid watermelon seeds using matrix priming. Further, the same seed was treated with vacuum infiltration using 500 ppm Oxytetracycline solutions for 6 hours, which was followed by a matrix priming using water. For a control, seed of the same lot was treated using vacuum infiltration with water, followed by matrix priming using water. Also, untreated seeds were preserved as an additional control.

Series [4] relates to Acidovorax avenae subsp. citrulli. Particulars: 1% solution, soak for 15 minutes; cited from earlier work.
For series [5], the system named is Xanthomonas campestris pv. Campestris. The series can be described thus: Osmotic priming with PEG followed by vacuum infiltration of infected broccoli seeds: presence of disease. The series is classed as in vivo. Particulars: osmotic priming for 4 days followed by 6 hours of vacuum infiltration with 500 ppm. On the procedure: Determination of proper length of priming treatment and vacuum filtration treatment are performed on an empirical basis. For an example, the inventors identified proper treatment length in the following manner. A lot of broccoli seeds infected with Xanthomonas campestris pv. Campestris were treated with the following treatment regiments. […] Seeds were tested after treatments for both germination and presence of the disease Xanthomonas campestris pv. Campestris.

In series [6] the test system is Acidovorax avenae subsp. citrulli. The series can be described thus: 30 minute soak of infected diploid watermelon seeds, screening against the target disease. The format is in vivo. The text has this: Substances with suitable levels of phytotoxicity are then screened for their affectivity against target diseases. For an example, the inventors screened the antibiotic piperacillin/tazobactam, and electrolyzed water for its affectivity against Acidovorax avenae subsp. citrulli on diploid watermelons seeds. […] This serves only as an example, and any method of screening can be used either in vivo or in vitro to screen for affectivity against target diseases and appropriate dose.

[7] abbreviates: further screening using the same format, concentrations not given.

As for `C[C@H]1O[C@H](O[C@H]2[C@H](O)[C@@H](O)[C@@H](O)[C@H](O)[C@@H]2O)[C@@H](N)C[C@@H]1NC(=N)C(=O)O` [Kasugamycin], in series [1], the “MIC (minimum inhibitory concentration)” value was “greater than 100 ppm”. Further, the “elimination of bacteria on seeds” value in series [2] (250 ppm) and in series [2] (500 ppm) was “effective” throughout.
As to `CO/N=C(\C(=O)N[C@@H]1C(=O)N2C(C(=O)O)=C(CSc3nc(=O)c(=O)[nH]n3C)CS[C@H]12)c1csc(N)n1` [Ceftriaxone sodium], the phytotoxicity result in series [3] (in vivo) is recorded as “no phytotoxic effects”. The “elimination of bacteria on seeds” value in series [2] (any dose (100 ppm, 250 ppm, 500 ppm)) is reported as “not effective”.
Consider Colistin sulphate, for which the phytotoxicity entry in series [3] (setting [7]) is “mild phytotoxic effects”. Besides, the “elimination of bacteria on seeds” value in series [2] (250 ppm) and in series [2] (500 ppm) was “effective” in each case.
On to `[Ca+2].[O-]Cl.[O-]Cl` [calcium hypochlorite], for which, in series [4], the “elimination from watermelon seeds” value was “not effective”.
For `CCn1cc(C(=O)O)c(=O)c2cc3c(cc21)OCO3` [Oxalinic acid], the phytotoxicity entry in series [3] (in vivo) is reported as “phytotoxic”. The “elimination of bacteria on seeds” value in series [2] (250 ppm) and in series [2] (500 ppm) was “effective” in each case.
For `O=C(N[C@H](CO)[C@H](O)c1ccc([N+](=O)[O-])cc1)C(Cl)Cl` [Chloramphenicol], the phytotoxicity entry in series [3] (in vivo) was “phytotoxic”. For the same compound, the “elimination of bacteria on seeds” value in series [2] (250 ppm) and in series [2] (500 ppm) was “effective” in each case.
For the compound `O=P([O-])([O-])[O-].[Na+].[Na+].[Na+]` [trisodium phosphate], in series [3] (setting [7]), the phytotoxicity entry is listed as “phytotoxic”.
For Piperacillin/tazobactam, in series [5], the “eradication of seed borne disease” value is given as “eradicated”. The entries for the “elimination of the bacteria” value in series [6] (100 ppm) and in series [6] (250 ppm) were “not effective” and “effective”, respectively. The “elimination of bacteria on seeds” value in series [2] (250 ppm) and in series [2] (500 ppm) was “effective” each time.
Regarding Trimethoprim-sulfamethoxazole, the “elimination of bacteria on seeds” value in series [2] (250 ppm) and in series [2] (500 ppm) was “effective” in each case.
